Assay results reported in PMC6095874, “Discovery of cationic nonribosomal peptides as Gram-negative antibiotics through global genome mining” (Nature Communications, 2018).
≈ marks a conversion by molar mass, not a printed value. Like-named read-outs stand apart in the source and are kept apart here. Values belong to the compound of their own block, whether it stands above or below them. Where a SMILES comes first, the peptide text is derived from it. Bridges are numbered along the chain shown (N, C = ends). [ ]: non-standard residue; d: D form. The star is where a group is joined. Octanoyl(7-Me) = CC(C)CCCCCC(=O)*; dOrn = NCCC[C@@H](N)C(=O)O; Orn = NCCC[C@H](N)C(=O)O

Experiments:
[1] = test system: Escherichia coli ATCC 25922; experiment: microbe, parasite or virus in culture; format: cell-based
Procedure: (§1) MIC was determined by broth microdilution according to CLSI guidelines. The test medium for most species was Mueller–Hinton broth (MHB). Bacteria were grown overnight to early stationary phase and adjusted in MHB to 5.0 × 10^5 c.f.u. mL^−1 in the wells of 96-well microtiter plates (Falcon® 96-Well Flat-Bottom Microplate, Tissue Culture-Treated), mixed with varying concentrations of test compounds and incubated at 37 °C for 24 h. Cell growth was evaluated by measuring the optical density at 595 nm (Thermo Scientific Multiskan FC multiplate photometer) (Waltham, MA, USA), and the MIC was defined as the lowest compound concentration at which no bacterial growth was observed. MHBs containing 10% fetal bovine serum (Gibco), 21 mM MgCl, or 1.0 mg mL^−1 LPS (lipopolysaccharides from E. coli O55:B5, Sigma-Aldrich) was used to test their inhibitory effects.

E. coli ATCC 25922 [2] = experiment: Resistance acquisition during serial passaging; format: cell-based, Escherichia coli; conditions: subinhibitory concentrations, 30-day period, MHB, 37 °C, quadruplicate
Procedure: E. coli ATCC 25922 was inoculated into MHB overnight at 37 °C with continuous shaking. Cells were diluted 10,000 times in MHB to about 1 × 10^6 c.f.u. mL^−1. Ten µL aliquots were drawn to a 96-well plate containing 90 µL of serially diluted brevicidine, laterocidine, and ciprofloxacin, at final concentrations of 0.5×, 1×, 1.5×, 2×, and 4× MIC. […] Plates with bacteria were incubated at 37 °C without shaking. […] This process was repeated for 30 days, and the final MIC was confirmed by the same antibacterial assay as the one described above. The experiment was performed in quadruplicate, and on each day, the sample that developed the highest resistance was measured to plot the curve. For single-step resistance, E. coli ATCC 25922 cells at 10^8 c.f.u. were plated onto Mueller–Hinton agar containing 4× MIC of brevicidine.

E. cloacae NRRL-B-425 = format: cell-based, Enterobacter cloacae; conditions: NRRL-B-425, 24 h
Procedure: as §1

Human HeLa cells = conditions: concentrations up to 128 μg mL^−1, 48 h, 37 °C, MTT, absorbance 570 nm
Procedure: Human HeLa cells were used in the assay. Ninety μL of 1 × 10^5 mL^−1 cells were placed into the wells of 96-microwell plates. After 12 h, 10 μL of a medium containing test compounds at various concentrations were added to the cells which were then incubated at 37 °C for 48 h. Afterward, the supernatant was removed and 20 μL of MTT (3-(4,5-Dimethylthiazol-2-yl)-2,5-Diphenyltetrazolium Bromide) (2.5 mg mL^−1) in PBS were added to each well. After incubation at 37 °C for 3 h, 80 μL of dimethyl sulfoxide (DMSO) were added to each well and incubated for an additional 15 min. The absorbance was then measured at 570 nm with a Thermo Scientific Multiskan FC multiplate photometer.

[3] = test system: Staphylococcus aureus (MRSA); format: cell-based; conditions: 24 h
Procedure: as §1

[4] = test system: Pseudomonas aeruginosa PAO1; format: cell-based; conditions: Supplementary Table 1; Pa = Pseudomonas aeruginosa PAO1
Procedure: as §1

Gram-negative bacteria = format: cell-based
Procedure: as §1

E. coli = experiment: Lysis assay; format: cell-based, Escherichia coli; conditions: ten times the MIC, culture OD600 = 1.0, 24 h
Procedure: (§2) An overnight culture of E. coli TOP10 cells was diluted 1:10,000 in MHB and incubated at 37 °C with agitation at 180 rpm for 2 h (early exponential). The bacteria were then challenged with brevicidine (20 μg mL^−1), laterocidine (20 μg mL^−1), or polymyxin B (10 μg mL^−1) at ten times the MIC at room temperature without shaking. An untreated sample of cells was used as a negative control. At intervals, 10 μL aliquots were removed, centrifuged at 10,000 × g for 1 min and resuspended in 1.0 mL of sterile PBS. Tenfold serially diluted suspensions were plated on MHB agar plates and incubated at 37 °C overnight. Colonies were counted and the number of c.f.u. per mL was calculated. For analysis of lysis, 300 μL of culture (OD600 = 1.0) were treated with antibiotics at ten times the MIC for 24 h. Experiments were performed in triplicate.

Candida albicans = format: cell-based; conditions: 24 h
[5] = test system: K. pneumoniae NRRL-B-3521; format: cell-based, Klebsiella pneumoniae; conditions: NRRL-B-3521, 24 h
Procedure: as §1

Saccharomyces cerevisiae = format: cell-based; conditions: 24 h
E. coli ATCC 25922 [6] = experiment: Neutropenic mouse thigh infection model; format: in vivo; conditions: laterocidine 15 mg kg^−1 twice s.c., five mice, after 26 h, Mann–Whitney P < 0.01
Procedure: Given the low risk of resistance and the attractive mode of action of 1–2, an animal efficacy study was then performed in a mouse thigh model. Mice were intramuscularly infected with 1.50 × 10^6 c.f.u. of E. coli ATCC 25922. Two hours post infection, brevicidine (30 mg kg^−1) or laterocidine (15 mg kg^−1) was subcutaneously injected at two doses. […] In particular, compound 1 was highly efficacious in mice infected with E. coli and caused a 5 log10 reduction in c.f.u. in the thigh compared to the vehicle control after 24 h (Fig. 4f).
In vivo activities of brevicidine and laterocidine were tested using the mouse thigh infection model. Animal studies were performed by Pharmacology Discovery Services Taiwan Ltd. in general accordance with standard guidelines on animal welfare[38] in an AAALAC-accredited facility. The protocol was reviewed and approved by the Institutional Animal Care and Use Committee. Groups of five female-specific pathogen-free ICR (CD-1) mice weighing 22 ± 2 g (~5 weeks of age) were used. Animals were immunosuppressed with two intraperitoneal injections of cyclophosphamide, the first at 150 mg kg^−1 4 days before infection (day −4) and the second at 100 mg kg^−1 1 day before infection (day −1). On day 0, animals were inoculated intramuscularly (0.1 mL per thigh) in the right thigh with an E. coli ATCC 25922 suspension. Vehicle (10% DMSO, 1% Tween 80, 0.9% NaCl) and antibiotics were then subcutaneously injected 2 and 8 h later. Due to the limited availability of compounds 1–2, only one concentration of 1 (30 mg kg^−1) or 2 (15 mg kg^−1) was used in the present study. Precisely 26 h after inoculation, animals were euthanized by CO2 asphyxiation before their right thigh muscles were harvested. The removed muscles were homogenized in 5 mL of PBS, pH 7.4, with a Polytron homogenizer. Homogenates in the amount of 0.1 mL were used for serial tenfold dilutions and plated onto a nutrient agar medium for colony count (in c.f.u. g^−1) determination. No randomization or blinding was necessary for the animal infection models, and no samples were excluded.

E. coli TOP10 cells [7] = experiment: Time-kill assay; format: cell-based, Escherichia coli
Procedure: as §2

E. coli TOP10 cells [8] = experiment: Bacterial growth kinetics; format: cell-based, Escherichia coli; conditions: OD600 of cells exposed to antibiotics (Fig. 4: two times the MIC)
Procedure: A single fresh colony of E. coli TOP10 cells was inoculated into MHB (5 mL) and grown with shaking at 225 rpm overnight. The bacteria were diluted to 1 × 10^5 c.f.u. mL^−1 in fresh MHB, grown […] to early log-phase (OD600 = 0.15) and treated with the antibiotics of interest in the wells of a 96-well plate. Final antibiotic concentrations varied from one to eight times the MIC. The plate was then incubated at 30 °C overnight, with OD600 measurements taken every 30 s.

[9] = test system: Colistin-resistant E. coli (E. coli ATCC 25922 carrying mcr-1); experiment: MIC by broth microdilution; format: cell-based, Escherichia coli; conditions: MHB, 37 °C, 24 h
Procedure: as §1

[10] = test system: Klebsiella pneumoniae NRRL-B-408; experiment: MIC by broth microdilution; format: cell-based; conditions: Supplementary Table 1; Kp = Klebsiella pneumoniae NRRL-B-408
Procedure: as §1

Acinetobacter baumannii = experiment: MIC by broth microdilution; format: cell-based; conditions: Supplementary Table 1
Procedure: as §1

[11] = test system: Enterobacter cloacae NRRL-B-413; experiment: MIC by broth microdilution; format: cell-based; conditions: Supplementary Table 1; En = Enterobacter cloacae NRRL-B-413
Procedure: as §1

Bacillus subtilis 168 = experiment: MIC by broth microdilution; format: cell-based; conditions: Supplementary Table 1; Bs = B. subtilis 168
Procedure: as §1

rabbit erythrocytes = conditions: concentrations up to 128 μg mL^−1, 2% (v/v) rabbit erythrocytes in PBS, 1 h, 37 °C, absorbance 570 nm, vs 10% Triton X-100
Procedure: Hemolytic activity was determined with red blood cells freshly isolated from healthy rabbits. […] The cells were incubated for 1 h at 37 °C and centrifuged for 5 min at 10,000 × g. The supernatant was transferred to a 96-well plate and the absorbance was measured at a wavelength of 570 nm with a Thermo Scientific Multiskan FC multiplate photometer. The absorbance relative to the positive control, which was treated with 10% Triton X-100, was defined as the percentage of hemolysis.

MIC ([1]; Escherichia coli, ATCC25922, positive control of the mouse thigh model infected with E. coli ATCC 25922, strain for MIC not stated explicitly, read-out: MIC): 0.032 µg/mL (≈ 0.0886 µM)
Structure (SMILES): C[C@H]1COc2c(N3CCN(C)CC3)c(F)cc3c(=O)c(C(=O)O)cn1c23 [Levofloxacin]

Structure (SMILES): O=C(O)c1cn(C2CC2)c2cc(N3CCNCC3)c(F)cc2c1=O [ciprofloxacin, reference compound]
resistance development during serial passaging (E. coli ATCC 25922 [2]): developed resistance

Structure (SMILES): CC[C@H](C)[C@@H]1NC(=O)[C@@H](NC(=O)[C@H](Cc2c[nH]c3ccccc23)NC(=O)[C@@H](CCCN)NC(=O)CNC(=O)[C@H](CCCN)NC(=O)[C@@H](CCCN)NC(=O)[C@@H](Cc2c[nH]c3ccccc23)NC(=O)[C@@H](Cc2ccc(O)cc2)NC(=O)[C@@H](CO)NC(=O)CCCCCC(C)C)[C@@H](C)OC(=O)CNC(=O)CNC(=O)[C@H](CC(N)=O)NC1=O [Compound 2, laterocidine] ({Octanoyl(7-Me)}-[dS][dY][dW][dOrn][Orn]G[dOrn]WTINGG; ester 9-C)
MIC (E. cloacae NRRL-B-425): 2 µg/mL (≈ 1.25 µM) | toxicity against the human cell line HeLa (Human HeLa cells): nor showed significant toxicity | MIC [3]: >64 µg/mL | MIC, Pa [4]: 2 µg/mL (≈ 1.25 µM) | MIC values against Gram-negative bacteria (Gram-negative bacteria; 24 h): 0.66 to 10.5 µM | MIC values against Gram-negative bacteria (Gram-negative bacteria; range over Gram-negative strains incl. P. aeruginosa and colistin-resistant E. coli): 1 to 16 µg/mL | lysis of E. coli cells (E. coli): completely lysed | MIC (Candida albicans): >64 µg/mL | MIC [5]: 4 µg/mL (≈ 2.49 µM) | MIC (Saccharomyces cerevisiae): >64 µg/mL | viable bacteria in thigh (E. coli ATCC 25922 [6]): reduced number of viable bacteria | bactericidal action against E. coli (E. coli TOP10 cells [7]; as revealed by growth kinetics, time-kill assay and lysis assay): bactericidal | cell viability in time-kill assay (E. coli TOP10 cells [7]; ten times the MIC, early exponential cells, room temperature, c.f.u. counts, triplicate): significant reduction after 30 min | resistance development during serial passaging (E. coli ATCC 25922 [2]): did not develop resistance | growth kinetics of E. coli cells exposed to compound (E. coli TOP10 cells [8]): grew at a reduced rate for 30 min | MIC [9]: 2 µg/mL (≈ 1.25 µM) | MIC, Ec ([1]; Supplementary Table 1, Ec = Escherichia coli ATCC 25922): 2 µg/mL (≈ 1.25 µM) | MIC, Kp [10]: 4 µg/mL (≈ 2.49 µM) | MIC, Ab (Acinetobacter baumannii): 4 µg/mL (≈ 2.49 µM) | MIC, En [11]: 2 µg/mL (≈ 1.25 µM) | MIC, Bs (Bacillus subtilis 168): 32 µg/mL (≈ 19.9 µM) | lysis of erythrocytes (hemolysis) (rabbit erythrocytes): neither caused the lysis of erythrocytes
